Assay [1] deals with SW1736. Description: Human cancer cell line studies, SW1736. In kind it is cell-based. The following applies: Homo sapiens, SW-1736; Thyroid ca SW1736; read-out: GI50. The protocol:
(§1) The assay used is described in Monks et al. Briefly, the cell suspensions, diluted according to tho particular cell type and the expected target cell density (5,000-40,000 cells per well based on cell growth characteristics), were added by pipet (100 μl) to 96-well microtiter plates. Inoculates were allowed a preincubation time of 24-28 hours at 37° C. for stabilization. Incubation with the inhibitor compounds lasted for 48 hours in 5% CO2 atmosphere and 100% humidity. Determination of cell growth was done by in situ fixation of cells, followed by staining with a protein-binding dye, sulforhodamine B (SRB), which binds to the basic amino acids of cellular macromolecules. The solubilized stain was measured spectrophotometrically.

For assay [2], the system named is SK-N-SH. Nature of the assay: Human cancer cell line studies, SK-N-SH. The format is cell-based. The following applies: Homo sapiens; Neuroblast SK-N-SH; read-out: GI50. As to the method:
as §1

Assay [3] relates to NCI-H460. Nature of the assay: Growth inhibitory activity, human cancer cell line NCI-H460 (SRB). The format is cell-based. The following applies: Homo sapiens; Lung-NSC NCI-H460; read-out: GI50. The protocol: as §1
Assay [4] relates to T1, tubulin.
T1 construct: Purified tubulin is obtained from bovine brain cells as described in Hamel and Lin
Nature of the assay: Tubulin polymerization assay. The following applies: for IC50: purified tubulin […], GTP-induced, 350 nm, final steady-state number for compounds other than 1A and 10A, read-out: IC50 for inhibition of tubulin polymerization. In kind it is biochemical, bovine. As to the method:
The ability of the various above described compounds to inhibit tubulin polymerization can be determined by in vitro assay. A suitable assay system is that described by Bai et al. A method for purifying tubulin from bovine brain cells is described by Hamel and Lin.
IC50 values for tubulin polymerization were determined according to the procedure described in Bai et al. Purified tubulin is obtained from bovine brain cells as described in Hamel and Lin. Various amounts of inhibitor were preincubated for 15 minutes at 37° C. with purified tubulin. After the incubation period, the reaction was cooled and GTP was added to induce tubulin polymerization. Polymerization was then monitored in a Gilford spectrophotometer at 350 nm. The final reaction mixtures (0.25 ml) contained 1.5 mg/ml tubulin, 0.6 mg/ml microtubule-associated proteins (MAPs), 0.5 mM GTP, 0.5 mM MgCl2, 4% DMSO and 0.1 M 4-morpholineethanesulfonate buffer (MES, pH 6.4). […]

For assay [5], the system named is BXPC-3. Description: Human cancer cell line studies, BXPC-3. The format is cell-based. The following applies: Homo sapiens; Pancreas adn BXPC-3; read-out: GI50. The protocol:
as §1

The subject of assay [6] is DU-145. Nature of the assay: Human cancer cell line studies, DU-145. In kind it is cell-based. To be noted: Homo sapiens; Prostate DU-145; read-out: GI50. The protocol: as §1
The subject of assay [7] is FADU. Description: Human cancer cell line studies, FADU. To be noted: Homo sapiens; Pharynx-sqam FADU; read-out: GI50. In kind it is cell-based. The protocol: as §1
Assay [8] concerns P388 leukemia cells. Nature of the assay: Cytotoxic assay with P388 leukemia cells. In kind it is cell-based, mouse. The source says: The tubulin polymerization compounds can also be tested for their ability to inhibit tumor cell growth.
The mark [9] stands for this setting: Mus musculus, P388, read-out: ED50.
Where [10] appears, read: P388 mouse leukemia, dosage required to inhibit 50% of cell growth.

SMILES strings stand for the structures. ≈ marks a conversion by molar mass, not a printed value. Read-outs that look alike come from different tables or passages of the source.

By GI50 is commonly meant the concentration giving 50% growth inhibition.

Turning to `COc1cc(/C=C\c2cc(OC)c(OC)c(OC)c2)ccc1[N+](=O)[O-]` [Compound 27E, (Z)-1-(3′-methoxy-4′-nitrophenyl)-2-(3″,4″,5″-trimethoxyphenyl) ethene], the GI50 in assay [1] was found to be 3.3 µg/mL (≈ 9.56 µM); in assay [2] it was 2.1 µg/mL (≈ 6.08 µM); in assay [3], 2.3 µg/mL (≈ 6.66 µM); in assay [5], 1.9 µg/mL (≈ 5.5 µM); in assay [6], 2.6 µg/mL (≈ 7.53 µM); in assay [7], 1.1 µg/mL (≈ 3.19 µM). Also, the IC50 in assay [4] is > 40 µM.

Take `COc1ccc(-c2cc3c(OC)ccc(C(=O)c4cc(OC)c(OC)c(OC)c4)c3s2)cc1` [Compound 13A, 7-(3′,4′,5′-trimethoxybenzoyl)-2-(4′-methoxyphenyl)-4-methoxybenzo[b]thiophene]: the GI50 is > 10 µg/mL in assay [1]; > 10 µg/mL in assay [2]; > 10 µg/mL in assay [3]; > 10 µg/mL in assay [5]; > 10 µg/mL in assay [6]; 7.8 µg/mL (≈ 16.8 µM) in assay [7]. For the same compound, in assay [4], the IC50 is > 40 µM.

Take `COc1cc(/C=C\c2cc(OC)c(OC)c(OC)c2)ccc1N=[N+]=[N-]` [Compound 30E, (Z)-1-(4′azido-3′-methoxyphenyl)-2-(3″,4″,5″-trimethoxyphenyl)ethene]: the 50% growth inhibitory concentration (GI50) in assay [1] worked out at 0.45 µg/mL (≈ 1.32 µM); in assay [2], 0.24 µg/mL (≈ 0.703 µM); in assay [3], 0.35 µg/mL (≈ 1.03 µM); in assay [5], 0.3 µg/mL (≈ 0.879 µM); in assay [6], 0.7 µg/mL (≈ 2.05 µM); in assay [7], 0.42 µg/mL (≈ 1.23 µM). Further, in assay [4], the IC50 worked out at 1.5 µM.

As for `COc1ccc(-c2sc3cc(OC)ccc3c2C(=O)c2cc(OC)c(O)c(OC)c2)cc1` [Compound 19A, 3-(4′-hydroxy-3′,5′-dimethoxybenzoyl)-2-(4′-methoxyphenyl)-6-methoxybenzo[b]thiophene], the “tubulin polymerization inhibition” value in assay [4] is recorded as “no observable tubulin polymerization inhibition activity”. Besides, the “activity against P388 leukemia cells” value in assay [8] is listed as “failed to show measurable activity against the leukemia cells”. Further, the IC50 in assay [8] (setting [9]) was > 100 µg/mL. Besides, the ED50 in assay [8] (setting [10]) is >100 µg/mL.

Consider `COc1ccc(-c2sc3ccccc3c2C(=O)c2cc(OC)c(OC)c(OC)c2)cc1` [Compound 16A, 3-(3′,4′,5′-trimethoxybenzoyl)-2-(4′-methoxyphenyl)-benzo[b]thiophene], for which the concentration for 50% growth inhibition (GI50) in assay [1] was determined as 4.6 µg/mL (≈ 10.6 µM); in assay [2], 0.83 µg/mL (≈ 1.91 µM); in assay [3], 2.7 µg/mL (≈ 6.21 µM); in assay [5] it was 1.7 µg/mL (≈ 3.91 µM); in assay [6], 4.8 µg/mL (≈ 11 µM); in assay [7] it was 0.63 µg/mL (≈ 1.45 µM). The IC50 in assay [4] is > 40 µM.

For `COc1ccc(-c2sc3cc(OC)ccc3c2C(=O)c2cc(F)c(F)c(F)c2)cc1` [Compound 14A, 3-(3′,4′,5′-trifluorobenzoyl)-2-(4′-methoxyphenyl)-6-methoxybenzo[b]thiophene], the concentration for 50% growth inhibition (GI50) in assay [1] was > 10 µg/mL; in assay [2] it was > 10 µg/mL; in assay [3], > 10 µg/mL; in assay [5], > 10 µg/mL; in assay [6] it was > 10 µg/mL; in assay [7] it was 13.6 µg/mL (≈ 31.7 µM). In assay [4], the IC50 is > 40 µM.

As for `COc1ccc(-c2sc3cc(OC)ccc3c2C(=O)c2cc(OC)cc(OC)c2)cc1` [Compound 3A, 3-(3′,5′-dimethoxybenzoyl)-2-(4′-methoxyphenyl)-6-methoxybenzo[b]thiophene], the “tubulin polymerization inhibition” value in assay [4] is “no observable tubulin polymerization inhibition activity”. In addition, the “activity against P388 leukemia cells” value in assay [8] is “failed to show measurable activity against the leukemia cells”. Further, the IC50 in assay [8] (setting [9]) is > 100 µg/mL. The ED50 in assay [8] (setting [10]) was >100 µg/mL.

For the compound `COc1ccc(-c2sc3cc(OC)ccc3c2C(=O)c2ccc(N(C)C)cc2)cc1` [Compound 11A, 3-(4′-N,N-dimethylaminobenzoyl)-2-(4′-methoxyphenyl)-6-methoxybenzo[b]thiophene], the GI50 in assay [1], in assay [2], in assay [3], in assay [5], in assay [6] and in assay [7] was > 10 µg/mL each time. For the same compound, in assay [4], the IC50 is > 40 µM.

For `COc1ccc(-c2sc3cc(OC)ccc3c2C(=O)/C=C/c2cc(OC)c(OC)c(OC)c2)cc1` [Compound 17A, E-3-[3′-(3′,4′,5′-trimethoxyphenyl)cinnamoyl]-2-(4′-methoxyphenyl)-6-methoxybenzo[b]thiophene], the GI50 in assay [1] was determined as 5.2 µg/mL (≈ 10.6 µM); in assay [2] it was 1.3 µg/mL (≈ 2.65 µM); in assay [3], 3.9 µg/mL (≈ 7.95 µM); in assay [5], 2.3 µg/mL (≈ 4.69 µM); in assay [6], 7.5 µg/mL (≈ 15.3 µM); in assay [7], 1.8 µg/mL (≈ 3.67 µM). For the same compound, the IC50 in assay [4] is > 40 µM.

As for `COc1ccc(-c2cc3c(OC)ccc(C(=O)c4cc(F)c(F)c(F)c4)c3s2)cc1` [Compound 12A, 7-(3′,4′,5′-trifluorobenzoyl)-2-(4′-methoxyphenyl)-4-methoxybenzo[b]thiophene], the concentration for 50% growth inhibition (GI50) is > 10 µg/mL in assay [1]; > 10 µg/mL in assay [2]; > 10 µg/mL in assay [3]; > 10 µg/mL in assay [5]; > 10 µg/mL in assay [6]; 6.7 µg/mL (≈ 15.6 µM) in assay [7]. For the same compound, the IC50 in assay [4] is > 40 µM.

Regarding `COc1ccc2c(c1)CCC=C2c1cc(OC)c(OC)c(OC)c1CO` [Compound 25D, 1-(hydroxymethyl-3′,4′,5′-trimethoxyphenyl)-6-methoxy-3,4-dihydronaphthalene], the 50% growth inhibitory concentration (GI50) amounted to 2.1 µg/mL (≈ 5.89 µM) in assay [1]; 0.3 µg/mL (≈ 0.842 µM) in assay [2]; 1.5 µg/mL (≈ 4.21 µM) in assay [3]; 0.53 µg/mL (≈ 1.49 µM) in assay [5]; 2.6 µg/mL (≈ 7.29 µM) in assay [6]; 0.51 µg/mL (≈ 1.43 µM) in assay [7]. Besides, the IC50 in assay [4] is > 40 µM.

For `CCOc1ccc(-c2sc3cc(OCC)ccc3c2C(=O)c2cc(OC)c(OC)c(OC)c2)cc1` [Compound 18A, 3-(3′,4′,5′-trimethoxybenzoyl)-2-(4′-ethoxyphenyl)-6-ethoxybenzo[b]thiophene], the GI50 in assay [1] is 2.3 µg/mL (≈ 4.67 µM); in assay [2], 0.33 µg/mL (≈ 0.67 µM); in assay [3], 1.4 µg/mL (≈ 2.84 µM); in assay [5], 1.6 µg/mL (≈ 3.25 µM); in assay [6], 3.6 µg/mL (≈ 7.31 µM); in assay [7], 0.6 µg/mL (≈ 1.22 µM). Also, the IC50 in assay [4] was > 40 µM.

Take `COc1ccc2c(c1)CCC=C2C(=O)c1cc(OC)c(OC)c(OC)c1` [Compound 26D, 1-(3′,4′,5′-trimethoxybenzoyl)-6-methoxy-3,4-dihydronaphthalene]: the GI50 in assay [1] is 0.0048 µg/mL (≈ 0.0135 µM); in assay [2], < 0.001 µg/mL; in assay [3], 0.0033 µg/mL (≈ 0.00931 µM); in assay [5] it was 0.003 µg/mL (≈ 0.00846 µM); in assay [6], 0.0038 µg/mL (≈ 0.0107 µM); in assay [7], 0.0013 µg/mL (≈ 0.00367 µM). Also, in assay [4] (4 μM), the “tubulin polymerization curve at 4 μM” value is recorded as “total flat”. Also, the IC50 in assay [4] came to 1.7 µM.

Turning to `COc1ccc(-c2sc3cc(OC)ccc3c2C(=O)c2c(OC)cccc2OC)cc1` [Compound 2A, 3-(2′,6′-dimethoxybenzoyl)-2-(4′-methoxyphenyl)-6-methoxybenzo[b]thiophene], the “tubulin polymerization inhibition” value in assay [4] was “no observable tubulin polymerization inhibition activity”. Further, the “activity against P388 leukemia cells” value in assay [8] was “failed to show measurable activity against the leukemia cells”. Moreover, the ED50 in assay [8] (setting [10]) is >100 µg/mL. In addition, the IC50 in assay [8] (P388 mouse leukemia, dosage required to inhibit 50% of cell growth, read-out: ED50 (the source's name)) was > 100 µg/mL.

`CCOc1c(OC)cc(C(=O)c2c(-c3ccc(OC)cc3)sc3cc(OC)ccc23)cc1OC` [Compound 10A, 3-(4′-ethoxy-3′,5′-dimethoxybenzoyl)-2-(4′-methoxyphenyl)-6-methoxybenzo[b]thiophene]: the 50% growth inhibitory concentration (GI50) turned out to be 0.31 µg/mL (≈ 0.648 µM) in assay [1]; 0.17 µg/mL (≈ 0.355 µM) in assay [2]; 0.32 µg/mL (≈ 0.669 µM) in assay [3]; 0.22 µg/mL (≈ 0.46 µM) in assay [5]; 0.35 µg/mL (≈ 0.731 µM) in assay [6]; 0.31 µg/mL (≈ 0.648 µM) in assay [7]. Moreover, the “tubulin polymerization inhibition” value in assay [4] is given as “clear inhibition of tubulin polymerization of rate, but not of plateau”. In addition, the “polymerization curves at several concentrations” value in assay [4] (4, 10, and 40 μM) is “nearly identical”.

On to `COc1ccc(/C=C\c2cc(OC)c(OC)c(OC)c2)cc1N(Cc1ccccc1)Cc1ccccc1` [5-[(Z)-2-(3′,4′,5′-trimethoxyphenyl)ethenyl]-2-methoxy-N,N-bis-(phenylmethyl)aniline, reference compound], for which the ED50 in assay [8] (setting [10]) came to 33.9 µg/mL (≈ 68.4 µM).
